Assays:
[1] = Fluorescence quantum yields (corrected emission spectra, relative to TPP); assay type: physicochemical; conditions: excitation wavelength 355 nm, emission 550-800 nm
Procedure: Mass spectra were recorded on a Finnigan MAT TSQ 700 triple quadrupole mass spectrometer equipped with an […]. The matrix-assisted laser desorption/ionization mass spectra of the porphyrins were obtained using a dithranol matrix. FAB-MS spectra were obtained using a 3-nitrobenzyl alcohol (NOBA) matrix. ^1H-NMR spectra were measured at 60 MHz on a Jeol JNM-PMX60 spectrometer, at 270 MHz on a Jeol EX 270 spectrometer and at 300 MHx on a Varian Gemini-300 spectrometer in CDCl3 using TMS as an internal reference. Ultraviolet/visible spectra of solutions of compounds in tetrahydrofuran (THF) or toluene were measured using a Hitachi U-3000 spectrophotometer or a ATI-Unicam UV-2 spectrophotometer. Reflectance-absorbance infra red (RAIR) spectra were recorded on a BIO-RAD FTS 165 spectrophotometer. Fluorescence emission spectra were recorded using a Spex Fluorolog 3 spectrophotometer at an excitation wavelength of 355 nm, emission at 550 to 800 nm, with a bandpass of 2 nm.
The emission spectra were recorded using a Spex Fluorolog 3, excitation wavelength=355 nm, emission 550-800 nm, with a bandpass of 2 nm. A spectrum was recorded for each of the title compounds of Examples 67 to 81.
The fluorescence quantum yield for each of the title compounds of Examples 67 to 81 was determined by measuring the integral of the corrected emission spectra for each compound and calculated relative to TPP=0.11 (Handbook of Photochemistry Ed 2, Murov, Carmichael and Hug, Dekker 1993). The fluorescence quantum yield for each of the title compounds of Examples 67 to 81 are listed in Table 1; values for Zn TPP and Mg TPP are included in Table 1 for reference but they were not measured in this work.

[2] = Singlet oxygen quantum yields (singlet oxygen phosphorescence at 1270 nm); assay type: physicochemical; conditions: for ΦΔ (singlet oxygen quantum yield): aerated toluene, excitation 355 nm, 20-23° C., relative to TPP ΦΔ=0.58
Procedure: The singlet oxygen quantum yields were determined by the direct measurement of singlet oxygen phosphorescence at 1270 nm. Samples were excited using the third harmonic of a Q-switched Nd:YAG (neodymium: yttrium-aluminium-garnet) Spectra Physics GCR-150-10 laser, operating at an excitation wavelength of 355 nm. A small fraction of the laser output was passed through a solution state filter containing aqueous cobalt (II) sulphate (CoSO4) to remove residual 532 and 1064 nm radiation and then down a 8 mm diameter liquid light guide (Oriel). For the measurements the end of the light guide was held against a 1 cm×1 cm fluorescence cuvette (Hellma) holding the sample. During the course of the experiments the incident laser energy for each measurement was determined using a pyroelectric detector held behind the sample. This detector was calibrated at the start of the experiment using a second calibrated energy meter (Gentec ED100). The laser energy was adjusted by placing cells containing aqueous sodium nitrite between the CoSO4 filter and the light guide. Typical pulse energies used were in the range of 25-500 μJ per pulse. Shot to shot noise was estimated to be <10% and sets of 20 shots gave an average value within <3%.
Phosphorescence from the sample was collected and passed through an interference filter centred at 1270 nm available from (Infra Red Engineering Ltd) and then focused onto the active area of a liquid nitrogen cooled germanium photodiode (North Coast EO-817P). The output from this device was AC coupled to a digital oscilloscope (Tektronix TDS-320) which digitised and averaged the transients. Typically 20 laser shots were used for each sample. The averaged data was transferred to a PC where it was stored and analysed.
A stock solution of each of the title compounds of Examples 67 to 81 was prepared by dissolving a small sample of the respective title compound in approximately 5 ml of toluene (Fisher Scientific, Analytical grade). The exact concentrations of the stock solution was not determined.
A working solution of each of the title compounds of Examples 67 to 81 was prepared by diluting the respective stock solution with toluene to give an absorbance of 0.100±0.005 at 355 nm when placed in a ultraviolet/visible spectrometer (ATI-Unicam UV-2) compared to a reference cell containing the pure toluene solvent. The ultraviolet/visible spectrum of each sample was also recorded over the range 300-700 nm.
All of the data were recorded at ambient temperature, 20-23° C., and the solutions were aerated. The singlet oxygen emission decay was recorded for each sample using 5 laser energies and the data for each measurement were fitted to an exponential decay of the form I(t)=A.exp(−t/τ), where I(t) is the measured intensity of singlet oxygen phosphorescence at time t, A is the intensity extrapolated back to t=0 (ie when the laser fires), and τ is the lifetime of singlet oxygen. A typical decay for the title compound of Example 78 in toluene excited at 355 nm using a pulse energy of 365 μJ, where A=19.6 and τ=27.8 μs, is shown in FIG. 2.
A plot of A versus the incident laser energy was drawn for each sample and the slope determined. The slope of such a graph is proportional to the singlet oxygen quantum yield. An example of a plot showing the linear relationship between the singlet oxygen emission intensity and the laser energy for the title compound of Example 78 and meso-tetraphenylporphyrin (TPP) is shown in FIG. 3.
The experiments were carried out using batches of 5 samples of the working solution of each of the title compounds of 67 to 81 plus one reference sample meso-tetraphenylporphyrin (TPP). Each run was repeated at least once. The data sets obtained for each sample were within ±5% of the mean value.
The dominant sources of error in the experiment include the shot-to-shot fluctuations in the laser and the difference in absorbances of the samples at the excitation wavelength. The values have an error of ±10%. […]

Compound: 5,5′-{4,4′-[12,12′-Dithiobis-(dodecyloxy)-phenyl]}-10,10′,15,15′,20,20′-hexakis-(3,4,5-tridecyloxy-phenyl)-diporphyrinato Magnesium [Example 68]
- Quantum yield of fluorescence, relative to TPP = 0.11 [1]: 0.10
- ΦΔ (singlet oxygen quantum yield) [2]: 0.39 ± 0.04

Compound: 5-[4-(12-but-3-Enyloxy-dodecyloxy)-phenyl]-10,15,20-tris-(3,5-didecyloxy-phenyl)-porphyrinato Zinc [Example 80]
- Quantum yield of fluorescence, relative to TPP = 0.11 [1]: 0.04
- ΦΔ (singlet oxygen quantum yield) [2]: 0.75 ± 0.07

Compound: 5-[4-(6-but-3-Enyloxy-hexyloxy)-phenyl]-10,15,20-tris-(3,5-didecyloxy-phenyl)-porphyrinato Zinc [Example 79]
- Quantum yield of fluorescence, relative to TPP = 0.11 [1]: 0.04
- ΦΔ (singlet oxygen quantum yield) [2]: 0.76 ± 0.08

Compound: C=CCCOCCCCCCOc1ccc(-c2c3nc(c(-c4cc(OCCCCCCCCCC)c(OCCCCCCCCCC)c(OCCCCCCCCCC)c4)c4ccc([n-]4)c(-c4cc(OCCCCCCCCCC)c(OCCCCCCCCCC)c(OCCCCCCCCCC)c4)c4nc(c(-c5cc(OCCCCCCCCCC)c(OCCCCCCCCCC)c(OCCCCCCCCCC)c5)c5ccc2[n-]5)C=C4)C=C3)cc1.[Mg+2] [Example 77, 5-[4-(6-but-3-Enyloxy-hexyloxy)-phenyl]-10,15,20-tris-(3,4,5-tridecyloxy-phenyl)-porphyrinato Magnesium]
- Quantum yield of fluorescence, relative to TPP = 0.11 [1]: 0.14
- ΦΔ (singlet oxygen quantum yield) [2]: 0.51 ± 0.05

Compound: 5,5′-{4,4′-[12,12′-Dithiobis-(dodecyloxy)-phenyl]}-10,10′,15,15′,20,20′-hexakis-(3,4,5-tridecyloxy-phenyl)-diporphyrinato Zinc [Example 67]
- Quantum yield of fluorescence, relative to TPP = 0.11 [1]: 0.04
- ΦΔ (singlet oxygen quantum yield) [2]: 0.65 ± 0.07

Compound: C=CCCOCCCCCCOc1ccc(-c2c3nc(c(-c4cc(OCCCCCC)c(OCCCCCC)c(OCCCCCC)c4)c4ccc([n-]4)c(-c4cc(OCCCCCC)c(OCCCCCC)c(OCCCCCC)c4)c4nc(c(-c5cc(OCCCCCC)c(OCCCCCC)c(OCCCCCC)c5)c5ccc2[n-]5)C=C4)C=C3)cc1.[Zn+2] [Example 69, 5-[4-(6-but-3-Enyloxy-hexyloxy)-phenyl]-10,15,20-tris-(3,4,5-trihexyloxy-phenyl)-porphyrinato Zinc]
- Quantum yield of fluorescence, relative to TPP = 0.11 [1]: 0.04
- ΦΔ (singlet oxygen quantum yield) [2]: 0.71 ± 0.07

Compound: C=CCCOCCCCCCCCCCCCOc1ccc(-c2c3nc(c(-c4cc(OCCCCCCCCCCCCCCCC)c(OCCCCCCCCCCCCCCCC)c(OCCCCCCCCCCCCCCCC)c4)c4ccc([n-]4)c(-c4cc(OCCCCCCCCCCCCCCCC)c(OCCCCCCCCCCCCCCCC)c(OCCCCCCCCCCCCCCCC)c4)c4nc(c(-c5cc(OCCCCCCCCCCCCCCCC)c(OCCCCCCCCCCCCCCCC)c(OCCCCCCCCCCCCCCCC)c5)c5ccc2[n-]5)C=C4)C=C3)cc1.[Zn+2] [Example 74, 5-[4-(12-but-3-Enyloxy-dodecyloxy)-phenyl]-10,15,20-tris-(3,4,5-trihexadecyloxy-phenyl)-porphyrinato Zinc]
- Quantum yield of fluorescence, relative to TPP = 0.11 [1]: 0.04
- ΦΔ (singlet oxygen quantum yield) [2]: 0.71 ± 0.07

Compound: C=CCCOCCCCCCCCCCCCCCCCOc1ccc(C2=c3ccc4[n]3[Zn][n]3c(ccc3C(c3cc(OCCCCCCCCCC)c(OCCCCCCCCCC)c(OCCCCCCCCCC)c3)=C3C=CC(=N3)C=4c3cc(OCCCCCCCCCC)c(OCCCCCCCCCC)c(OCCCCCCCCCC)c3)C(c3cc(OCCCCCCCCCC)c(OCCCCCCCCCC)c(OCCCCCCCCCC)c3)=C3C=CC2=N3)cc1 [Example 75, 5-[4-(16-but-3-Enyloxy-hexadecyloxy)-phenyl]-10,15,20-tris-(3,4,5-tridecyloxy-phenyl)-porphyrinato Zinc]
- Quantum yield of fluorescence, relative to TPP = 0.11 [1]: 0.04
- ΦΔ (singlet oxygen quantum yield) [2]: 0.71 ± 0.07

Compound: C=CCCOCCCCCCCCCCCCOc1ccc(-c2c3nc(c(-c4cc(OCCCCCCCCCC)c(OCCCCCCCCCC)c(OCCCCCCCCCC)c4)c4ccc([n-]4)c(-c4cc(OCCCCCCCCCC)c(OCCCCCCCCCC)c(OCCCCCCCCCC)c4)c4nc(c(-c5cc(OCCCCCCCCCC)c(OCCCCCCCCCC)c(OCCCCCCCCCC)c5)c5ccc2[n-]5)C=C4)C=C3)cc1.[Zn+2] [Example 73, 5-[4-(12-but-3-Enyloxy-dodecyloxy)-phenyl]-10,15,20-tris-(3,4,5-tridecyloxy-phenyl)-porphyrinato Zinc]
- Quantum yield of fluorescence, relative to TPP = 0.11 [1]: 0.04
- ΦΔ (singlet oxygen quantum yield) [2]: 0.71 ± 0.07

Compound: C=CCCOCCCCCCCCCCCCCCCCOc1ccc(-c2c3nc(c(-c4cc(OCCCCCCCCCCCCCCCC)c(OCCCCCCCCCCCCCCCC)c(OCCCCCCCCCCCCCCCC)c4)c4ccc([n-]4)c(-c4cc(OCCCCCCCCCCCCCCCC)c(OCCCCCCCCCCCCCCCC)c(OCCCCCCCCCCCCCCCC)c4)c4nc(c(-c5cc(OCCCCCCCCCCCCCCCC)c(OCCCCCCCCCCCCCCCC)c(OCCCCCCCCCCCCCCCC)c5)c5ccc2[n-]5)C=C4)C=C3)cc1.[Zn+2] [Example 76, 5-[4-(16-but-3-Enyloxy-hexadecyloxy)-phenyl]-10,15,20-tris-(3,4,5-trihexadecyloxy-phenyl)-porphyrinato Zinc]
- Quantum yield of fluorescence, relative to TPP = 0.11 [1]: 0.03
- ΦΔ (singlet oxygen quantum yield) [2]: 0.66 ± 0.07

Compound: C=CCCOCCCCCCCCCCCCOc1ccc(-c2c3nc(c(-c4cc(OCCCCCC)cc(OCCCCCC)c4)c4ccc([n-]4)c(-c4cc(OCCCCCC)cc(OCCCCCC)c4)c4nc(c(-c5cc(OCCCCCC)cc(OCCCCCC)c5)c5ccc2[n-]5)C=C4)C=C3)cc1.[Zn+2] [Example 78, 5-[4-(12-but-3-Enyloxy-dodecyloxy)-phenyl]-10,15,20-tris-(3,5-dihexyloxy-phenyl)-porphyrinato Zinc]
- Quantum yield of fluorescence, relative to TPP = 0.11 [1]: 0.04
- ΦΔ (singlet oxygen quantum yield) [2]: 0.78 ± 0.08
- τ, lifetime of singlet oxygen ([2]; toluene, excited at 355 nm, pulse energy 365 μJ (FIG. 2)): 27.8 μs

Compound: 5-[4-(12-but-3-Enyloxy-dodecyloxy)-phenyl]-10,15,20-tris-(3,5-dihexadecyloxy-phenyl)-porphyrinato Zinc [Example 81]
- Quantum yield of fluorescence, relative to TPP = 0.11 [1]: 0.04
- ΦΔ (singlet oxygen quantum yield) [2]: 0.70 ± 0.07

Compound: 5-[4-(12-but-3-Enyloxy-dodecyloxy)-phenyl]-10,15,20-tris-(3,4,5-trihexyloxy-phenyl)-porphyrinato Zinc [Example 72]
- Quantum yield of fluorescence, relative to TPP = 0.11 [1]: 0.04
- ΦΔ (singlet oxygen quantum yield) [2]: 0.71 ± 0.07

Compound: 5-[4-(6-but-3-Enyloxy-hexyloxy)-phenyl]-10,15,20-tris-(3,4,5-tridecyloxy-phenyl)-porphyrinato Zinc [Example 70]
- Quantum yield of fluorescence, relative to TPP = 0.11 [1]: 0.04
- ΦΔ (singlet oxygen quantum yield) [2]: 0.75 ± 0.07

From patent US6630128B1, “Porphyrin derivatives their use in photodynamic therapy and medical devices containing them” (Destiny Pharma Limited, priority 1999, dated 2003)
